Test results published in patent US12427171B2, “Krill oil composition enriched in LPC-DHA and LPC-EPA” (Aker BioMarine Human Ingredients AS, priority 2020, dated 2025).

What was measured:
[1] = Mouse retinal fatty acid composition after daily gavage of free DHA, sn-1 DHA LPC or sn-2 DHA LPC for 30 days (GC/MS); assay type: in vivo
Description: Normal male mice (C57 BL/J6, 16-week-old) were gavaged daily with 1 mg DHA in the form of free DHA, sn-1 DHA LPC, or sn-2 DHA LPC in 80 μL corn oil for 30 days. Retinal FA composition was analyzed by GC/MS. Only the values for arachidonic acid and the omega-3 FA are shown here (mean±SD, 8 animals/group). […] SD: standard deviation; sn-1 and sn-2: stereospecific numbering 1 and 2 respectively; LPC: lysophosphatidylcholine; DHA: docosahexaenoic acid.
(§1) Animals and dietary treatments: All studies in animals described here were approved by the Institutional Animal Care and Use Committee of the University of Illinois at Chicago. The retina samples were obtained from our previous studies on the brain accretion of DHA in mice and rats, which were published previously. Male Sprague-Dawley rats (8-week-old) were purchased from Harlan laboratories (Indianapolis, IN, USA). Male C57 BL/J6 mice (2-4-months-old) were purchased from Jackson Laboratories (Bar Harbor. Maine).
(§2) In the first study, male Sprague-Dawley rats (n=5 per group, 8-week-old) were gavaged daily with 10 mg of DHA (40 mg DHA/kg body weight) in the form of TAG-DHA (DHASCO algal oil, DSM Nutritional Products, Columbia, MD, USA), synthetic di-DHA PC (phosphatidylcholine), or synthetic LPC-DHA (sn-1 acyl) for 30 days. The DHA was distributed equally among the three positions of TAG-DHA [17]. […] In the second study, 4-month-old male C57 BL/J6 mice (n=8 per group) were gavaged daily with 40 mg DHA/kg body weight in the form of free (unesterified) DHA, sn-1 acyl LPC-DHA, or sn-2 acyl LPC-DHA for 30 days as described previously. In the third study, male C57 BL/J6 mice (2-months-old, n=5 per group) were fed diets enriched with natural or lipase-treated fish oil or hill oil for 30 days. The total amount of omega-3 FA (eicosapentaenoic acid (EPA)+DHA) was 2.64 g/kg diet in all the diets. The untreated hill oil contained 18% of total omega-3 FA as LPC, whereas the lipase-treated hill oil contained >80% of the total omega-3 FA as LPC. The fish oil diets contained no LPC-EPA or LPC-DHA. The animals were trans-cardially perfused with ice cold phosphate buffered saline under anesthesia and the retinas were collected and kept frozen at −80° C. until the analysis.
(§3) Analytical procedures: The total lipids of retina were extracted by Bligh and Dyer procedure and the fatty acids were methylated using methanolic HCl. The fatty acid analysis was carried out by GC/MS (gas chromatography/mass spectroscopy) using Shimadzu QP2010SE equipped with Supelco Omegawax column, as described previously. Total ion current in the range of 50-400 m/z was used for quantification of the methyl esters. For LC/MS/MS (liquid chromatography/tandem mass spectroscopy) analysis, the lipids were extracted by the procedure of Ivanova et al.. The analysis of molecular species of phospholipids was performed on an ABSciex QTRAP mass spectrometer (Redwood City, CA, USA) coupled with Agilent 2600 UPLC system (Santa Clara, CA, USA), by multiple reaction monitoring. The internal standards 17:0 LPC, di 17:0 PC, and di 17:0 PE (phosphatidylethanolamine) were used for the quantification of the corresponding molecular species, without applying any correction factors for the differences in the ion intensity of different molecular species.
(§4) Statistics and correlations: The significance of differences between treatment groups was determined by a one-way ANOVA, with Tukey post-hoc multiple comparison corrections or unpaired t-test between control and treated samples adjusted with Holm-Sidak method (Graphpad Prism 8.0, San Diego, CA, USA).

[2] = Rat retinal fatty acid composition after daily gavage of DHA as TAG, PC or LPC for 30 days (GC/MS); assay type: in vivo
Description: Normal male Sprague-Dawley rats (8-week-old; n=5 per group) were gavaged daily with 10 mg DHA in 250 μL corn oil in the form of TAG-DHA, di-DHA PC, or LPC-DHA for 30 days. […] All animals were on regular rodent chow that contained no DHA, but contained 17.4 mg α-linolenic acid (18:3, n-3) per g of chow. Retinal FA were analyzed by GC/MS as described in the text. The percent composition of 20:4 (n-6), 20:5 (n-3), 22:5 (n-3), and 22:6 (n-3) are shown here. The significance of differences between the treatment groups was determined by a one-way ANOVA, with Tukey multiple post-hoc test (Graphpad Prism 8.0). […] TG: triacylglycerol; PC: phosphatidylcholine; LPC: lysophosphatidylcholine; FA: fatty acid; GC/MS: gas chromatography/mass spectroscopy.
as §1, §2, §3
as §4, with “USA). […]” for “USA).”

## CC/C=C\C/C=C\C/C=C\C/C=C\C/C=C\C/C=C\CCC(=O)O [Free DHA, docosahexaenoic acid]
[1]; 1 mg DHA daily by gavage
  fatty acid composition of mouse retina, 12:0, Mean ± S.D.: 0.60 ± 0.35
  fatty acid composition of mouse retina, 14:0, Mean ± S.D.: 0.20 ± 0.17
  fatty acid composition of mouse retina, 16:0, Mean ± S.D.: 16.11 ± 1.56
  fatty acid composition of mouse retina, 16:0 DMA, Mean ± S.D.: 0.75 ± 0.56
  fatty acid composition of mouse retina, 16:1 (n-7), Mean ± S.D.: 0.55 ± 0.28
  fatty acid composition of mouse retina, 17:1 (n-7), Mean ± S.D.: 0.43 ± 0.16
  fatty acid composition of mouse retina, 18:0, Mean ± S.D.: 17.32 ± 0.66
  fatty acid composition of mouse retina, 18:0 DMA, Mean ± S.D.: 2.10 ± 0.88
  fatty acid composition of mouse retina, 18:1(n-7), Mean ± S.D.: 4.18 ± 0.34
  fatty acid composition of mouse retina, 18:1 (n-9), Mean ± S.D.: 17.14 ± 0.78
  fatty acid composition of mouse retina, 18:1 DMA, Mean ± S.D.: 0.85 ± 0.56
  fatty acid composition of mouse retina, 18:2 (n-6), Mean ± S.D.: 0.99 ± 0.65
  fatty acid composition of mouse retina, 18:3 (n-3), Mean ± S.D.: 0.49 ± 0.15
  fatty acid composition of mouse retina, 18:3 (n-6), Mean ± S.D.: 0.49 ± 0.36
  fatty acid composition of mouse retina, 20:0, Mean ± S.D.: 1.90 ± 0.64
  fatty acid composition of mouse retina, 20:1 (n-9), Mean ± S.D.: 3.42 ± 0.59
  fatty acid composition of mouse retina, 20:2 (n-6), Mean ± S.D.: 0.71 ± 0.50
  fatty acid composition of mouse retina, 20:3 (n-6), Mean ± S.D.: 1.30 ± 0.66
  fatty acid composition of mouse retina, 20:4 (n-6), Mean ± S.D.: 7.42 ± 0.72
  fatty acid composition of mouse retina, 20:5 (n-3), Mean ± S.D.: 2.03 ± 1.21
  fatty acid composition of mouse retina, 22:0, Mean ± S.D.: 1.08 ± 0.59
  fatty acid composition of mouse retina, 22:2 (n-6), Mean ± S.D.: 0.77 ± 0.51
  fatty acid composition of mouse retina, 22:4 (n-6), Mean ± S.D.: 2.51 ± 0.85
  fatty acid composition of mouse retina, 22:5 (n-3), Mean ± S.D.: 0.42 ± 0.15
  fatty acid composition of mouse retina, 22:6 (n-3), Mean ± S.D.: 15.74 ± 1.57
  fatty acid composition of mouse retina, 24:1 (n-9), Mean ± S.D.: 0.51 ± 0.25
[1]; mice, 1 mg DHA daily
  effect on retinal DHA: no effect

## CC/C=C\C/C=C\C/C=C\C/C=C\C/C=C\C/C=C\CCC(=O)OC[C@H](COP(=O)([O-])OCC[N+](C)(C)C)OC(=O)CC/C=C\C/C=C\C/C=C\C/C=C\C/C=C\C/C=C\CC [PC-DHA]
[2]; 10 mg DHA daily by gavage
  rat retinal fatty acid composition, 12:0, Mean: 4.57 % of total FA
  rat retinal fatty acid composition, 14:0, Mean: 0.97 % of total FA
  rat retinal fatty acid composition, 16:0, Mean: 19.06 % of total FA
  rat retinal fatty acid composition, 16:0 DMA, Mean: 0.05 % of total FA
  rat retinal fatty acid composition, 16:1 (n-7), Mean: 0.65 % of total FA
  rat retinal fatty acid composition, 17:1 (n-7), Mean: 0.03 % of total FA
  rat retinal fatty acid composition, 18:0, Mean: 17.79 % of total FA
  rat retinal fatty acid composition, 18:0 DMA, Mean: 0.03 % of total FA
  rat retinal fatty acid composition, 18:1 (n-7), Mean: 3.91 % of total FA
  rat retinal fatty acid composition, 18:1 (n-9), Mean: 17.70 % of total FA
  rat retinal fatty acid composition, 18:1 DMA, Mean: 0.06 % of total FA
  rat retinal fatty acid composition, 18:2 (n-6), Mean: 0.95 % of total FA
  rat retinal fatty acid composition, 18:3 (n-3), Mean: 0.07 % of total FA
  rat retinal fatty acid composition, 18:3 (n-6), Mean: 0.49 % of total FA
  rat retinal fatty acid composition, 20:0, Mean: 0.05 % of total FA
  rat retinal fatty acid composition, 20:1 (n-9), Mean: 0.07 % of total FA
  rat retinal fatty acid composition, 20:2 (n-6), Mean: 0.06 % of total FA
  rat retinal fatty acid composition, 20:3 (n-6), Mean: 0.06 % of total FA
  rat retinal fatty acid composition, 20:4 (n-6), Mean: 8.45 % of total FA
  rat retinal fatty acid composition, 20:5 (n-3), Mean: 0.06 % of total FA
  rat retinal fatty acid composition, 22:0, Mean: 0.07 % of total FA
  rat retinal fatty acid composition, 22:2 (n-6), Mean: 0.12 % of total FA
  rat retinal fatty acid composition, 22:4 (n-6), Mean: 0.07 % of total FA
  rat retinal fatty acid composition, 22:5 (n-3), Mean: 0.06 % of total FA
  rat retinal fatty acid composition, 22:5 (n-6), Mean: 0.02 % of total FA
  rat retinal fatty acid composition, 22:6 (n-3), Mean: 24.53 % of total FA
  rat retinal fatty acid composition, 24:1 (n-9), Mean: 0.05 % of total FA
[2]; rats, 10 mg DHA/day (40 mg DHA/kg)
  change of the percentage of DHA in retina versus control: +45%
